Laboratory results taken from ChEMBL document CHEMBL4411307, “N,N'-diaryl-bishydrazones in a biphenyl platform: Broad spectrum antifungal agents” (Eur J Med Chem, 2019).
≈ marks a conversion by molar mass, not a printed value. Calls of active or inactive are those of the source. The rule behind the calls is not given here.

How the values were obtained:
Aspergillus terreus = experiment: Antifungal activity against Aspergillus terreus ATCC MYA-3633 measured after 48 hrs by CLSI M38-A2 protocol based method; type: functional; conditions: ATCC MYA-3633, 48 h
Candida albicans [1] = experiment: Antifungal activity against fluconazole/ITC-resistant Candida albicans ATCC 90819 measured after 48 hrs by CLSI M27-A3 protocol based method; type: functional; conditions: ATCC 90819, 48 h
Candida albicans [2] = experiment: Antibiofilm activity against fluconazole/ITC-resistant Candida albicans ATCC 10231 assessed as reduction in sessile growth after 24 hrs by XTT assay; type: functional; conditions: ATCC 10231, 24 h
Candida albicans [3] = experiment: Antifungal activity against fluconazole/ITC-resistant Candida albicans ATCC MYA-1237 measured after 48 hrs by CLSI M27-A3 protocol based method; type: functional; conditions: ATCC MYA-1237, 48 h
[4] = Hemolytic activity in mouse RBC at […] ug/ml after 1 hr relative to control; type: ADME, cell-based, Erythrocyte; conditions: red blood cells (erythrocytes), read-out: Activity
Candida albicans [5] = experiment: Antifungal activity against fluconazole/ITC-susceptible Candida albicans ATCC MYA-2310 measured after 48 hrs by CLSI M27-A3 protocol based method; type: functional; conditions: ATCC MYA-2310, 48 h
[6] = Hemolytic activity in mouse RBC at 1.95 ug/ml after 1 hr relative to control; type: ADME, cell-based, Erythrocyte; conditions: red blood cells (erythrocytes), read-out: Activity
Candida albicans [7] = experiment: Antifungal activity against fluconazole/ITC-resistant Candida albicans ATCC 10231 measured after 48 hrs by CLSI M27-A3 protocol based method; type: functional; conditions: ATCC 10231, 48 h
Aspergillus flavus = experiment: Antifungal activity against Aspergillus flavus ATCC MYA-3631 measured after 48 hrs by CLSI M38-A2 protocol based method; type: functional; conditions: ATCC MYA-3631, 48 h
Candida parapsilosis = experiment: Antifungal activity against Candida parapsilosis ATCC 22019 measured after 48 hrs by CLSI M27-A3 protocol based method; type: functional; conditions: Lodderomyces parapsilosis, ATCC 22019, 48 h
Candida albicans [8] = experiment: Antifungal activity against fluconazole/ITC-resistant Candida albicans ATCC 64124 measured after 48 hrs by CLSI M27-A3 protocol based method; type: functional; conditions: ATCC 64124, 48 h
[9] = Hemolytic activity in mouse RBC at 3.9 ug/ml after 1 hr relative to control; type: ADME, cell-based, Erythrocyte; conditions: red blood cells (erythrocytes), read-out: Activity
[10] = Hemolytic activity in mouse RBC at […] after 1 hr relative to control; type: ADME, cell-based, Erythrocyte; conditions: red blood cells (erythrocytes), read-out: Activity; also: tested at 0.48 µg/mL
[11] = Hemolytic activity in mouse RBC at 31.3 ug/ml after 1 hr relative to control; type: ADME, cell-based, Erythrocyte; conditions: red blood cells (erythrocytes), read-out: Activity
Aspergillus nidulans = experiment: Antifungal activity against Aspergillus nidulans ATCC 38163 measured after 48 hrs by CLSI M38-A2 protocol based method; type: functional; conditions: ATCC 38163, 48 h
Candida albicans [12] = experiment: Antibiofilm activity against fluconazole/ITC-resistant Candida albicans ATCC 64124 assessed as reduction in sessile growth after 24 hrs by XTT assay; type: functional; conditions: ATCC 64124, 24 h
Candida albicans [13] = experiment: Fungicidal activity against fluconazole/ITC-resistant Candida albicans ATCC 10231 assessed as reduction in fungal growth at 0.5 to 2 times MIC incubated for 24 hrs followed by replating on PDA plates measured after 48 hrs Time-Kill assay; type: functional, organism-based
[14] = Hemolytic activity in mouse RBC at 7.8 ug/ml after 1 hr relative to control; type: ADME, cell-based, Erythrocyte; conditions: red blood cells (erythrocytes), read-out: Activity

**Q.** What does the source list for C[C@@H](c1ncncc1F)[C@](O)(Cn1cncn1)c1ccc(F)cc1F [VORICONAZOLE]?
**A.** MIC (Aspergillus terreus): > 31.3 µg/mL; MIC (Candida albicans [1]): 0.12 µg/mL (≈ 0.344 µM); MIC50 (Candida albicans [2]): 16 µg/mL (≈ 45.8 µM); MIC90 (Candida albicans [2]): > 32 µg/mL; MIC (Candida albicans [3]): 0.24 µg/mL (≈ 0.687 µM); hemolysis at 1 h, 15.6 ug/ml ([4]; at 15.6 µg/mL): 2.8%; hemolysis at 1 h, 0.975 ug/ml [4]: 10.3%; MIC (Candida albicans [5]): 0.12 µg/mL (≈ 0.344 µM); hemolysis at 1 h, 1.95 ug/ml [6]: 6.3%; MIC (Candida albicans [7]): 0.975 µg/mL (≈ 2.79 µM); MIC (Aspergillus flavus): > 31.3 µg/mL; MIC (Candida parapsilosis): 1.95 µg/mL (≈ 5.58 µM); MIC (Candida albicans [8]): 0.24 µg/mL (≈ 0.687 µM); hemolysis at 1 h, 3.9 ug/ml [9]: 7.5%; hemolysis at 1 h, […] [10]: 8.7%; hemolysis at 1 h, 31.3 ug/ml [11]: 83%; MIC (Aspergillus nidulans): > 31.3 µg/mL; MIC50 (Candida albicans [12]): 16 µg/mL (≈ 45.8 µM); MIC90 (Candida albicans [12]): > 32 µg/mL; Activity (Candida albicans [13]): Active; hemolysis at 1 h, 7.8 ug/ml [14]: 11.4%
